Laboratory results taken from the supplement of paper PMC9663587.

Legend:
Test in all cases: GRmax, 72 h; higher = less effect;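 also: breast cell lines in 384-well plates, nine doses across a 10^4 range, Dye Drop imaging of viable cells vs DMSO and time-zero plates, GR 0 means no net growth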
HCC1143 = system: HCC1143
BT474 = system: BT474
MCF12A = system: MCF12A
HCC70 = system: HCC70
CAL851 = system: CAL851
EVSAT = system: EVSAT
HCC38 = system: HCC38
184A1 = system: 184A1
MDAMB231 = system: MDAMB231
UACC893 = system: UACC893
SKBR3 = system: SKBR3
HCC1419 = system: HCC1419
ZR751 = system: ZR751

SMILES | GRmax, 72 h (HCC1143) [GR] | GRmax, 72 h (BT474) [GR] | GRmax, 72 h (MCF12A) [GR] | GRmax, 72 h (HCC70) [GR] | GRmax, 72 h (CAL851) [GR] | GRmax, 72 h (EVSAT) [GR] | GRmax, 72 h (HCC38) [GR] | GRmax, 72 h (184A1) [GR] | GRmax, 72 h (MDAMB231) [GR] | GRmax, 72 h (UACC893) [GR] | GRmax, 72 h (SKBR3) [GR] | GRmax, 72 h (HCC1419) [GR] | GRmax, 72 h (ZR751) [GR]
CN(C)C/C=C/C(=O)Nc1ccc(O[C@@H]2CCC[C@@H](Nc3ncc(Cl)c(-c4c[nH]c5ccccc45)n3)C2)cc1 [BSJ-01-175] (max 10 µM) | -0.449 | -0.962 | -0.292 | -0.884 | -0.535 | -0.512 | -0.564 | -0.452 | -0.562 | -0.904 | -0.769 | -0.601 | -0.346
CC(=O)c1c(C)c2cnc(Nc3ccc(N4CCN(CCOCCOCCOCCNC(=O)COc5cccc6c5C(=O)N(C5CCC(=O)NC5=O)C6=O)CC4)cn3)nc2n(C2CCCC2)c1=O (centres undefined) [BSJ-03-123] (max 10 µM) | -0.0159 | -0.0209 | 0.129 | -0.513 | -0.208 | 0.0652 | -0.0999 | -0.137 | -0.181 | 0.289 | -0.347 | 0.165 | 0.245
CC(C)Nc1cc(-c2c[nH]c(C(=O)N[C@H](CO)c3cccc(Cl)c3)c2)c(Cl)cn1 [BVD523] (max 10 µM) | 0.0829 | 0.977 | 0.104 | 0.461 | 0.274 | 0.695 | 0.371 | 0.046 | 0.213 | 0.274 | 0.34 | 0.637 | 0.554
Nc1cc(C(F)(F)F)c(-c2cc(N3CCOCC3)nc(N3CCOCC3)n2)cn1 [Buparlisib/NVP-BKM120] (max 10 µM) | -0.436 | -0.851 | -0.113 | -0.727 | -0.32 | -0.499 | -0.276 | -0.0111 | -0.235 | -0.833 | -0.373 | -0.496 | -0.226
COc1cc2nccc(Oc3ccc(NC(=O)C4(C(=O)Nc5ccc(F)cc5)CC4)cc3)c2cc1OC [Cabozantinib] (max 10 µM) | 0.512 | 0.647 | 0.96 | -0.0911 | 0.173 | 0.654 | 0.301 | 0.121 | 0.0749 | 0.735 | 0.442 | 0.622 | 1.06
COc1cc2c(Oc3ccc4[nH]c(C)cc4c3F)ncnc2cc1OCCCN1CCCC1 [Cediranib/AZD2171] (max 10 µM) | 0.0093 | 0.742 | 0.937 | -0.326 | -0.238 | 0.498 | -0.204 | 0.167 | -0.362 | -0.458 | -0.54 | -0.0329 | 0.672
Cc1cc(Nc2ncc(Cl)c(Nc3ccccc3S(=O)(=O)C(C)C)n2)c(OC(C)C)cc1C1CCNCC1 [Ceritinib/LDK378] (max 10 µM) | -0.422 | 1.18 | 0.172 | -0.881 | -0.596 | 0.646 | -0.404 | -0.728 | -0.333 | 0.807 | -0.825 | -0.867 | -0.159
Cc1nc(Nc2ncc(C(=O)Nc3c(C)cccc3Cl)s2)cc(N2CCN(CCO)CC2)n1 [Dasatinib] (max 10 µM) | 0.257 | -0.42 | -0.0434 | -0.579 | -0.244 | 0.171 | 0.332 | 0.192 | -0.126 | 0.706 | 0.081 | -0.196 | -0.213
